Data published in patent US8552007B2, “Mesoionic pesticides” (E.I. du Pont de Nemours and Company, priority 2008, dated 2013).
Where a name gives a salt, the structure may show the parent alone. Read-outs that look alike come from different tables or passages of the source. Blank lines part the entries; values can stand above or below the compound they belong to.

Experiments:
[1] = tested on: corn planthopper (Peregrinus maidis); experiment: whole plant or invertebrate; format: in vivo; conditions: 144 h
Method: For evaluating control of corn planthopper (Peregrinus maidis) through contact and/or systemic means, the test unit consisted of a small open container with a 3-4-day-old maize plant (spike) inside. White sand was added to the top of the soil prior to application. Test compounds were formulated and sprayed at 250 and 50 ppm and replicated three times as described for Test A. After spraying, the test units were allowed to dry for 1 h before they were post-infested with ˜15-20 nymphs (18 to 21 day old) by sprinkling them onto the sand with a salt shaker. A black, screened cap was placed on the top of the cylinder. The test units were held for 6 days in a growth chamber at 22-24° C. and 50-70% relative humidity. Each test unit was then visually assessed for insect mortality.

[2] = tested on: potato leafhopper (Empoasca fabae); experiment: whole plant or invertebrate; format: in vivo; conditions: 144 h, Soleil bean plant, 6 days; for mortality at 50 ppm: sprayed at 50 ppm; for mortality at 250 ppm: sprayed at 250 ppm
Method: For evaluating control of potato leafhopper (Empoasca fabae) through contact and/or systemic means, the test unit consisted of a small open container with a 5-6-day-old Soleil bean plant (primary leaves emerged) inside. White sand was added to the top of the soil and one of the primary leaves was excised prior to application.
Test compounds were formulated and sprayed at 250 and 50 ppm, and the tests were replicated three times as described for Test A. After spraying, the test units were allowed to dry for 1 h before they were post-infested with 5 potato leafhoppers (18-21-day-old adults). A black, screened cap was placed on the top of the cylinder. The test units were held for 6 days in a growth chamber at 24° C. and 70% relative humidity. Each test unit was then visually assessed for insect mortality.

[3] = tested on: cat flea (Ctenocephalides felis); experiment: whole plant or invertebrate; format: in vivo; conditions: 20 μL of 500 ppm solution on filter paper, adult fleas, 48 hours
Method: For evaluating control of the cat flea (Ctenocephalides felis), a test compound was solubilized in acetone:water (75:25) to a final test rate of 500 ppm. Then 20 μL of the 500 ppm solution was applied to filter paper in the bottom of a tube. The tube was allowed to dry for 3 hours. Then approximately 10 adult fleas were added to the tube and the tube was capped. The fleas were evaluated for mortality 48 hours later.

[4] = tested on: cat flea (Ctenocephalides felis); experiment: whole plant or invertebrate; format: in vivo; conditions: 30 ppm in bovine blood, adult fleas, 72 h
Method: For evaluating control of the cat flea (Ctenocephalides felis), a test compound was solubilized in propylene glycol/glycerol formal (60:40) and then diluted in bovine blood to a final test rate of 30 ppm. The treated blood was placed in a tube with the bottom of the tube covered with a membrane. Approximately 10 adult cat fleas were allowed to feed through the membrane on the treated blood. The adult fleas were evaluated for mortality 72 h later.

[5] = tested on: green peach aphid (Myzus persicae); experiment: whole plant or invertebrate; format: in vivo; conditions: 144 h, sprayed at 250 ppm, radish plant, 6 days
From the text: For evaluating control of green peach aphid (Myzus persicae) through contact and/or systemic means, the test unit consisted of a small open container with a 12-15-day-old radish plant inside. This was pre-infested by placing on a leaf of the test plant 30-40 aphids on a piece of leaf excised from a culture plant (cut-leaf method). The aphids moved onto the test plant as the leaf piece desiccated. After pre-infestation, the soil of the test unit was covered with a layer of sand.
Test compounds were formulated and sprayed at 250 ppm as described for Test A. The applications were replicated three times. After spraying of the formulated test compound, each test unit was allowed to dry for 1 h and then a black, screened cap was placed on top. The test units were held for 6 days in a growth chamber at 19-21° C. and 50-70% relative humidity. Each test unit was then visually assessed for insect mortality.

[6] = sprayed at 50 ppm, maize plant, 6 days, read-out: mortality
[7] = sprayed at 250 ppm, maize plant, 6 days, read-out: mortality

SMILES: O=c1c(-c2ccc(Cl)nc2)c([O-])[n+](CC(F)(F)F)c2ccccn12 [Compound 570]
mortality at 50 ppm [1, 6]: ≥ 80%
mortality at 250 ppm [1, 7]: ≥ 80%
mortality at 50 ppm [2]: ≥ 80%
mortality at 250 ppm [2]: ≥ 80%

SMILES: COc1cccc(-c2ncc(C[n+]3c([O-])c(I)c(=O)n4ccccc43)s2)c1 [Compound 613, 2-hydroxy-3-iodo-1-[[2-(3-methoxyphenyl)-5-thiazolyl]methyl]-4-oxo-4H-pyrido[1,2-a]-pyrimidinium inner salt]
mortality at 50 ppm [1, 6]: ≥ 80%
mortality at 250 ppm [1, 7]: ≥ 80%
mortality at 250 ppm [2]: ≥ 80%

SMILES: COc1cccc(-c2ncc(C[n+]3c([O-])c(-c4ccccc4)c(=O)n4ccccc43)s2)c1 [Compound 520]
mortality at 500 ppm [3]: ≥ 50%

SMILES: O=c1c(C2CCc3ccccc32)c([O-])[n+](Cc2ccc(Cl)nc2)c2ccccn12 (stereo not drawn) [Compound 757]
mortality at 50 ppm [1]: ≥ 80%
mortality at 250 ppm [1]: ≥ 80%

SMILES: CC(C)c1c([O-])[n+](CC(F)(F)F)c2ccccn2c1=O [Compound 115]
mortality at 250 ppm [1, 7]: ≥ 80%
mortality at 500 ppm [3]: ≥ 50%

melting point: 214 to 215 °C
SMILES: O=c1cc([O-])[n+](CC(F)(F)F)c2ccccn12 (as salt: salt) [Compound 610, 2-hydroxy-4-oxo-1-(2,2,2-trifluoroethyl)-4H-pyrido[1,2-a]-pyrimidinium inner salt]

SMILES: O=C(c1c([O-])[n+](CC(F)(F)F)c2ccccn2c1=O)C(F)(F)F [Compound 711, 2-hydroxy-4-oxo-3-(2,2,2-trifluoroacetyl)-1-(2,2,2-trifluoroethyl)-4H-pyrido[1,2-a]-pyrimidinium inner salt]
mortality at 50 ppm [2]: ≥ 80%

SMILES: O=c1c(-c2ccccc2)c([O-])[n+](C2CCOCC2)c2ccccn12 [Compound 583]
mortality at 250 ppm [1, 7]: ≥ 80%

SMILES: COc1cccc(-c2ccc(C[n+]3c([O-])c(-c4ccccc4)c(=O)n4ccccc43)cn2)c1 [Compound 599]
mortality at 50 ppm [1, 6]: ≥ 80%
mortality at 30 ppm [4]: ≥ 50%
mortality at 500 ppm [3]: ≥ 50%

SMILES: O=c1c(-c2ccncc2Cl)c([O-])[n+](CC(F)(F)F)c2ccccn12 [Compound 121]
mortality at 50 ppm [1, 6]: ≥ 80%
mortality at 250 ppm [1, 7]: ≥ 80%
mortality at 30 ppm [4]: ≥ 50%
mortality at 500 ppm [3]: ≥ 50%

SMILES: O=c1c(-c2ccc(F)nc2)c([O-])[n+](CC(F)(F)F)c2ccccn12 [Compound 571]
mortality at 50 ppm [1, 6]: ≥ 80%
mortality at 250 ppm [1, 7]: ≥ 80%
mortality at 250 ppm [2]: ≥ 80%

SMILES: O=c1c(I)c([O-])[n+](CC(F)(F)F)c2ccccn12 [Compound 111]
mortality at 50 ppm [1, 6]: ≥ 80%
mortality at 250 ppm [1, 7]: ≥ 80%
mortality at 50 ppm [2]: ≥ 80%
mortality at 250 ppm [2]: ≥ 80%
mortality at 250 ppm [5]: ≥ 80%
